According to BigSolDB 2.1:

Conditions: in formic acid

OC1OC[C@@H](O)[C@H](O)[C@H]1O (some centres undefined)
Conditions	solubility (mole fraction)
300.45 K	0.13
301.85 K	0.139
303.25 K	0.146
305.15 K	0.154
306.75 K	0.161
308.15 K	0.168
309.95 K	0.175
311.65 K	0.182
313.45 K	0.191
315.75 K	0.2
317.45 K	0.208
320.35 K	0.223
323.15 K	0.237
324.85 K	0.244
